Reference: patent US20180042223A1, “COMPOSITION COMPRISING A HYDROGEL AND PESTICIDES” (priority 2014, published 2018)

Tested on: spider mite (Tetranychus uricae)
Test: Effectiveness of pesticide with NovioHelix hydrogel adjuvant: dead percentage of spider mites on paprika plants
Type: in vivo
Conditions: day 5 after treatment; infected paprika plants; applied till run off; Noviohelix 3 mg/mL where used
Experimental: Paprika plants infected with spider mite (Tetranychus uricae) were used as experiment samples. All paprika (±20cm) were artificially infected with spiders 5 days before the experiments. The insecticide Spiromesifen (Spiromesifen, 240 g/l, Oberon) was used to against spiders. Noviohelix (3 mg/mL) was used as an adjuvant. All samples were applied with pesticide until ‘till run off’ (the first droplet of a composition fall off the leave). The effectiveness of Spiromesifen either with or without NovioHelix was determined based on the dead percentage of spiders after treatment. The spiders both in mature and immature phases were counted before and at day 5 after experiment.

Cc1cc(C)c(C2=C(OC(=O)CC(C)(C)C)C3(CCCC3)OC2=O)c(C)c1 [Spiromesifen] was tested, and the “% dead (dead percentage of spider)” value was 84.8%.
